{"source": "PubChem BioAssay AID463229", "about": "(Broad Institute, 2010)"}
{"tested_on": "INS-1E rat beta cells, no cytokines, CellTiter-Glo ATP, 48 h", "assay": "ATP level change in INS-1E without cytokines, dose response, counter-screen for beta-cell apoptosis protection project, INS-1E rat cells, ATP luminescence, cherry pick (AID 463229)", "units": {"AC50": "µM"}}
{"molecule": "CCOc1ccc(-n2c(O)c(/C=N/Nc3nc(C)cc(C)n3)c3ccccc3c2=O)cc1", "AC50": 6.38}
{"molecule": "COc1ccc(CC(=O)Nc2cccc(-c3nnc(-c4cccc(C)c4)o3)c2)cc1OC", "AC50": 3.46}
{"molecule": "COc1cc(SC#N)ccc1N=Cc1c(C)[nH]n(-c2ccc(C)cc2)c1=O", "AC50": 8.46}
{"molecule": "O=c1cc(CSc2ccc(Cl)cc2)nc(-c2ccccn2)[nH]1", "AC50": 11.6}
{"molecule": "O=C(N/N=C/c1cc([N+](=O)[O-])ccc1O)c1cc(-c2ccccc2)nc2ccccc12", "AC50": 5.78}
{"molecule": "COc1ccc(-[n+]2c(C)cc(/C=C3\\Sc4ccccc4N3C)cc2C)cc1", "AC50": "< 0.195"}
{"molecule": "COc1c(CC=C(C)C)cc(C2CC(=O)c3c(O)cc(O)cc3O2)cc1CC=C(C)C", "note": "(stereo not drawn)", "AC50": 4.05}
{"molecule": "C=CCc1cccc(/C=N/NC(=O)c2ccccc2OC)c1O", "AC50": 9.61}
{"molecule": "Cc1ccc([N+](=O)[O-])cc1N(CC(=O)Nc1ccc(S(=O)(=O)Nc2cccc(C(F)(F)F)c2)cc1)S(C)(=O)=O", "AC50": 4.1}
{"molecule": "Cc1sc2ncnc(NCC3COc4ccccc4O3)c2c1C", "note": "(stereo not drawn)", "AC50": 2.34}
{"molecule": "COc1ccc(-c2c[n+]3c4n2CCCCC4=C(c2ccc(Br)cc2)C3)cc1", "AC50": 3.14}
{"molecule": "O=S(=O)(C/C(=C/CO)S(=O)(=O)c1ccccc1)c1ccccc1", "AC50": 10.9}
{"molecule": "C#CC(=O)N(c1cccc(OC)c1)C(C(=O)NC1CCCC1)c1cccs1", "note": "(stereo not drawn)", "AC50": 14.7}
{"molecule": "CCN(CC)c1ccc(/C=N/NC(=O)CNC(=O)C2COc3ccccc3O2)c(O)c1", "note": "(stereo not drawn)", "AC50": 5.41}
{"molecule": "CC(=O)N1CCCc2cc(S(=O)(=O)N3CCCC(C(=O)N4CCN(c5cccc(Cl)c5)CC4)C3)ccc21", "note": "(stereo not drawn)", "AC50": 7.05}
{"molecule": "CCN1/C(=C/C=C/c2sc3ccccc3[n+]2CC)Sc2ccccc21", "AC50": "< 0.195"}
{"molecule": "COc1ccc(S(=O)(=O)/N=C2\\C=C(Nc3ccc(O)cc3)C(=O)c3ccccc32)cc1", "AC50": 1.65}
{"molecule": "COc1ccc(C(=O)N/N=C(\\c2ccccc2)c2ccccn2)cc1", "AC50": 3.51}
{"molecule": "O=S(=O)(NCC1CCCO1)c1ccc(-c2ccc(S(=O)(=O)NCC3CCCO3)cc2)cc1", "note": "(stereo not drawn)", "AC50": 4.95}
{"molecule": "CCCOc1nc2c(c(=O)n(C)c(=O)n2C)n1Cc1cccc2ccccc12", "AC50": 14.4}
{"molecule": "Cc1ccc(Nc2cc(C)nn2-c2nc(C)cc(=O)[nH]2)cc1", "AC50": 1.57}
{"molecule": "Cc1nnsc1C(=O)N/N=C/c1ccc2ccccc2c1O", "AC50": 1.81}
{"molecule": "COc1cc([N+](=O)[O-])cc(/C=N/NC(=O)c2cc(-c3ccccc3)nc3ccccc23)c1O", "AC50": 9.5}
{"molecule": "O=S(=O)(c1ccc(Cl)cc1)N1CCN(c2ncnc3sccc23)CC1", "AC50": 6.65}
{"molecule": "O=C(NC(c1ccc(Cl)cc1)c1cc(Cl)c2cccnc2c1O)c1cccnc1", "note": "(stereo not drawn)", "AC50": 6.6}
{"molecule": "O=c1[nH]c(=O)n(Cc2ccco2)c2c1C(C(F)(F)F)(C(F)(F)F)N=C(c1ccc(F)cc1)N2", "AC50": 1.39}
{"molecule": "CCCCCCCC[n+]1c(C)n(-c2ccccc2)c2ccc(NC(C)=O)cc21", "AC50": 3.76}
{"molecule": "Cc1ccc(-n2c(-c3ccccc3)c[n+]3c2CCC3)cc1", "AC50": 3.11}
{"molecule": "CN(C1=C(NC(=O)c2ccccc2)C(=O)c2ccccc2C1=O)C1CCS(=O)(=O)C1", "note": "(stereo not drawn)", "AC50": 4.84}
{"molecule": "COc1ccc(C(=O)NC(=S)NNC(=O)c2cnccn2)cc1", "AC50": 5.21}
{"molecule": "CC1(C)N=C(N)N=C(N)N1c1ccc(OCCCOc2ccccc2)c(Cl)c1", "AC50": 0.913}
{"molecule": "COc1ccc2nc(C)cc(SCC(=O)N/N=C/c3ccc(O)cc3O)c2c1", "AC50": 17.4}
{"molecule": "CCS(=O)(=O)c1ncc(Cl)c(C(=O)Nc2ccc(S(=O)(=O)N(C)c3ccccc3)cc2)n1", "AC50": 6.63}
{"molecule": "CCN(CC)CCOC(=O)c1ccc(N/C=C(/C#N)c2nc(-c3ccc4c(c3)OCO4)cs2)cc1", "AC50": 14.2}
{"molecule": "CCOc1ccc(OCc2ccc(C(=O)N/N=C(\\C)c3ccccn3)cc2)cc1", "AC50": 5.09}
{"molecule": "Cc1cnc(NC(=O)CN2CCN(c3ccccn3)CC2)s1", "AC50": 4.35}
{"molecule": "COc1ccc([N+](=O)[O-])c(S(=O)(=O)c2ccccc2)n1", "AC50": 7.36}
{"molecule": "CC(C)(C)c1cnnn1-c1ccc(/C=N/Nc2ccc([N+](=O)[O-])cc2)cc1", "AC50": 7.77}
{"molecule": "C/C(=N\\NC(=O)C(C)n1nc(C)c([N+](=O)[O-])c1C)c1ccccc1O", "note": "(stereo not drawn)", "AC50": 12.5}
{"molecule": "Cc1ccc(CSC(Nc2ccc(F)cc2)=C(C#N)C#N)cc1", "AC50": 4.11}
{"molecule": "Cc1cc(N/N=C\\c2ccc(Br)cc2)nc(-n2nc(C)cc2C)n1", "AC50": 21.5}
{"molecule": "CN1/C(=C\\C=C2/SC(=S)NC2=O)C(C)(C)c2ccccc21", "AC50": 3.38}
{"molecule": "COc1ccc(-c2nc3ccc(C)cn3c2NCc2ccccc2)cc1SC1CCCCC1", "AC50": 2.34}
{"molecule": "CCCCCCC(=O)N1C/C=C\\C(c2ccc(OC)cc2)N(Cc2ccc(F)cc2)C(=O)[C@H]1Cc1ccccc1", "note": "(stereo partly drawn)", "AC50": 5.73}
{"molecule": "O=C(/C=C/c1cccc(Cl)c1)c1ccc([N+](=O)[O-])o1", "AC50": 3.68}
{"molecule": "CC(=O)c1sc(NC(=O)C2(F)C(F)(F)C(F)(F)C(F)(F)C(F)(F)C2(F)F)nc1C", "AC50": 4.17}
{"molecule": "O=C(CNC(=O)c1ccccc1O)N/N=C/c1cc(Br)ccc1OC(=O)/C=C/c1ccco1", "AC50": 10.7}
{"molecule": "c1ccc(/N=C2\\N=C(Nc3ccccn3)c3ccccc32)nc1", "AC50": 5.52}
{"molecule": "Cc1cc(C)c2nc(NNC(=O)c3ccc(S(=O)(=O)N4CCCC(C)C4)cc3)sc2c1", "note": "(stereo not drawn)", "AC50": 4.52}
{"molecule": "Cc1[nH]n(-c2ccccc2)c(=O)c1N=Nc1c(O)cc(S(=O)(=O)N(C)C)c2ccccc12", "AC50": 3.72}
{"molecule": "CC(C)(C)c1cc(C(=O)N/N=C/c2ccccc2O)n(-c2ccccc2)n1", "AC50": 10.1}
{"molecule": "O=C(N=Nc1c(O)n(Cc2ccccc2)c2ccccc12)c1cc2ccccc2cc1O", "AC50": 8.07}
{"molecule": "COc1ccccc1N1CCN(Cc2ccc(O)c3ncccc23)CC1", "AC50": 5.14}
{"molecule": "C/C(=N\\NC(=O)c1ccccc1NC(=O)c1ccc(Cl)cc1)c1ccncc1", "AC50": 0.967}
{"molecule": "CCOC(=O)/C(=C\\c1ccc([N+](=O)[O-])cc1)C(=O)c1cc(C(C)=O)c(Nc2ccccc2)s1", "AC50": 2.41}
{"molecule": "O=C1C=C(c2cccs2)C[C@H](c2ccccc2)[C@H]1n1nnc([N+](=O)[O-])n1", "AC50": 12.8}
{"molecule": "COc1cc(OC)c2cc(C(=O)N/N=C/c3cccc(OC)c3O)[nH]c2c1", "AC50": 15.5}
{"molecule": "COc1cccc(-c2nc(-c3ccc(NC(=O)c4cccnc4)cc3)no2)c1", "AC50": 2.14}
{"molecule": "CC(NCC(O)COCCC12CC3CC(CC(C3)C1)C2)c1ccccc1", "note": "(stereo not drawn)", "AC50": 8.29}
{"molecule": "Cc1ccccc1CNc1ccc(C(CC(N)=O)NC(=O)c2ccc(Br)cc2)cc1[N+](=O)[O-]", "note": "(stereo not drawn)", "AC50": 15.7}
{"molecule": "CC(C)(C)OC(=O)NCCCCCc1cn([C@@H](CO)C(=O)NCCCCCCCCCCC(=O)N2CCN(C(=O)OC(C)(C)C)CC2)nn1", "AC50": 7.05}
{"molecule": "Oc1c(N=Nc2ccccn2)ccc2ccccc12", "AC50": 1.86}
{"molecule": "CCOc1ccc(-c2csc(/C(C#N)=C\\c3ccc(O)c([N+](=O)[O-])c3)n2)cc1", "AC50": 4.57}
{"molecule": "Cc1ccc(NC2=C/C(=N/S(=O)(=O)c3cccs3)c3ccccc3C2=O)cc1", "AC50": 2.37}
{"molecule": "COc1ccc(OC)c2c1C(=O)C(Cl)=C(Cl)C2=O", "AC50": 8.18}
{"molecule": "CCN1/C(=C/c2cccc[n+]2C)Sc2ccc(OC)cc21", "AC50": 1.58}
{"molecule": "COC1=CC(=O)[C@]2(C=C1OC)OC[C@@H]1Oc3c(ccc4c3C=CC(C)(C)O4)C(=O)[C@@H]12", "AC50": 1.07}
{"molecule": "Cc1ccc(N(CC(=O)Nc2cc(C)cc(C)c2)S(=O)(=O)c2c(C)noc2C)cc1", "AC50": 14.5}
{"molecule": "S=C(c1cn(CCOc2cccc3ccccc23)c2ccccc12)N1CCCC1", "AC50": 7.48}
{"molecule": "CCCC(=O)NC(c1cccs1)c1cc(Cl)c2cccnc2c1O", "note": "(stereo not drawn)", "AC50": 5.67}
{"molecule": "CCCCNc1c(-c2ccc(OC)c(SC(C)CC)c2)nc2ccc(C)cn12", "note": "(stereo not drawn)", "AC50": 4.44}
{"molecule": "CC1=C(CO)C(=O)OC([C@@H](C)C2CC[C@H]3C4C[C@H]5O[C@]56[C@@H](O)C=CC(=O)[C@]6(C)C4CC[C@]23C)C1", "note": "(stereo partly drawn)", "AC50": 6.2}
{"molecule": "CCOC(=O)C1CCN(C(=O)c2c(C)oc3c2C(=O)c2ccccc2C3=O)CC1", "AC50": 17.4}
